Results as given in the supplement of paper PMC10307832.

Key:
Experiment in all cases: relative viability (nuclei count vs DMSO), 5 days (fraction); higher = more cells survive
Gemcitabine + Bortezomib = compound: Nc1ccn([C@@H]2O[C@H](CO)[C@@H](O)C2(F)F)c(=O)n1 [Gemcitabine] + CC(C)C[C@H](NC(=O)[C@H](Cc1ccccc1)NC(=O)c1cnccn1)B(O)O [Bortezomib] (partner 0.002 µM)
Method in brief: (§1)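 Each reported value is a median over duplicate plates. It expresses relative viability: treated-well nuclei count divided by vehicle-well nuclei count. Lung cancer cell lines in 1536-well plates were dosed by pin tool a day after seeding, alone with one drug or with a fixed anchor-drug dose plus five library-drug doses (not always all listed) in √10 steps, and nuclei were counted after 5 days.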

Gemcitabine + Lapatinib = compound: Nc1ccn([C@@H]2O[C@H](CO)[C@@H](O)C2(F)F)c(=O)n1 [Gemcitabine] + CS(=O)(=O)CCNCc1ccc(-c2ccc3ncnc(Nc4ccc(OCc5cccc(F)c5)c(Cl)c4)c3c2)o1 [Lapatinib] (partner 2 µM)
Method in brief: as §1

Gemcitabine + AZD7762 = compound: Nc1ccn([C@@H]2O[C@H](CO)[C@@H](O)C2(F)F)c(=O)n1 [Gemcitabine] + NC(=O)Nc1cc(-c2cccc(F)c2)sc1C(=O)N[C@H]1CCCNC1 [AZD7762] (partner 0.2 µM)
Method in brief: as §1

Gemcitabine + Decitabine = compound: Nc1ccn([C@@H]2O[C@H](CO)[C@@H](O)C2(F)F)c(=O)n1 [Gemcitabine] + Nc1ncn([C@H]2C[C@H](O)[C@@H](CO)O2)c(=O)n1 [Decitabine] (partner 2 µM)
Method in brief: as §1

Row | Cell Line | relative viability (Gemcitabine + Bortezomib; first compound 0.001 µM) | relative viability (Gemcitabine + Bortezomib; first compound 0.003162 µM) | relative viability (Gemcitabine + Bortezomib; first compound 0.01 µM) | relative viability (Gemcitabine + Bortezomib; first compound 0.03162 µM) | relative viability (Gemcitabine + Bortezomib; first compound 0.1 µM) | relative viability (Gemcitabine + Lapatinib; first compound 0.001 µM) | relative viability (Gemcitabine + Lapatinib; first compound 0.003162 µM) | relative viability (Gemcitabine + Lapatinib; first compound 0.01 µM) | relative viability (Gemcitabine + Lapatinib; first compound 0.03162 µM) | relative viability (Gemcitabine + Lapatinib; first compound 0.1 µM) | relative viability (Gemcitabine + AZD7762; first compound 0.001 µM) | relative viability (Gemcitabine + AZD7762; first compound 0.003162 µM) | relative viability (Gemcitabine + AZD7762; first compound 0.01 µM) | relative viability (Gemcitabine + AZD7762; first compound 0.03162 µM) | relative viability (Gemcitabine + AZD7762; first compound 0.1 µM) | relative viability (Gemcitabine + Decitabine; first compound 0.001 µM) | relative viability (Gemcitabine + Decitabine; first compound 0.003162 µM) | relative viability (Gemcitabine + Decitabine; first compound 0.01 µM) | relative viability (Gemcitabine + Decitabine; first compound 0.03162 µM) | relative viability (Gemcitabine + Decitabine; first compound 0.1 µM)
1 | 201T | 1.03 | 1.09 | 1.12 | 0.952 | 0.401 | 0.981 | 1.04 | 1.03 | 0.942 | 0.537 | 0.59 | 0.584 | 0.237 | 0.225 | 0.233 | 0.83 | 0.87 | 0.906 | 0.776 | 0.446
2 | A549 | – | – | – | – | – | 0.967 | 0.747 | 0.249 | 0.0488 | 0.033 | – | – | – | – | – | 0.292 | 0.274 | 0.0559 | 0.0266 | 0.0227
3 | A-427 | 0.99 | 0.996 | 0.68 | 0.225 | 0.139 | 1.09 | 0.686 | 0.808 | 0.199 | 0.13 | 0.472 | 0.302 | 0.174 | 0.188 | 0.146 | 0.629 | 0.546 | 0.463 | 0.342 | 0.273
4 | ABC-1 | 0.344 | 0.313 | 0.372 | 0.233 | 0.239 | 1.14 | 1.2 | 0.95 | 0.88 | 0.664 | 0.748 | 0.757 | 0.964 | 0.295 | 0.304 | – | 0.798 | 1.07 | 0.497 | 0.436
5 | BEN | 0.79 | 0.669 | 0.198 | 0.118 | 0.113 | 0.625 | 0.529 | 0.197 | 0.112 | 0.108 | 0.441 | 0.252 | 0.184 | 0.184 | 0.253 | 0.698 | 0.456 | 0.413 | 0.249 | 0.257
6 | CAL-12T | 1.01 | 0.822 | 0.521 | 0.267 | 0.254 | 0.786 | 0.65 | 0.396 | 0.264 | 0.181 | 0.624 | 0.548 | 0.227 | 0.206 | 0.23 | – | – | – | – | –
7 | COR-L23 | 1.04 | 0.949 | 0.66 | 0.114 | 0.101 | 1.02 | 0.896 | 0.72 | 0.105 | 0.105 | – | – | – | – | – | 0.423 | 0.463 | 0.443 | 0.217 | 0.146
8 | COR-L 105 | 0.867 | 0.851 | 0.479 | 0.23 | 0.201 | 0.362 | 0.355 | 0.314 | 0.302 | 0.269 | – | – | – | – | – | 0.68 | 0.596 | 0.46 | 0.37 | 0.3
9 | Calu-6 | 1.04 | 0.57 | 0.26 | 0.167 | 0.159 | 1.03 | 0.799 | 0.348 | 0.167 | 0.126 | – | – | – | – | – | – | – | – | – | –
10 | ChaGo-K-1 | 1 | 0.424 | 0.341 | 0.23 | 0.303 | – | – | – | – | – | 0.819 | 0.47 | 0.186 | 0.141 | 0.153 | 0.517 | 0.467 | 0.337 | 0.205 | 0.187
11 | EKVX | 0.995 | 1.07 | 0.461 | 0.18 | 0.142 | 0.238 | 0.354 | 0.111 | 0.116 | 0.12 | 0.49 | 0.466 | 0.142 | 0.147 | 0.139 | 0.3 | 0.256 | 0.18 | 0.193 | 0.14
12 | IA-LM | 0.882 | 0.805 | 0.651 | 0.0803 | 0.0498 | – | 0.853 | 0.353 | 0.124 | 0.0354 | – | – | – | – | – | – | – | – | – | –
13 | LCLC-103H | 1.1 | 1.04 | 1.05 | 1.11 | 0.934 | – | – | – | – | – | 0.788 | 0.761 | 0.66 | 0.24 | 0.215 | 0.694 | 0.738 | 0.715 | 0.674 | 0.57
14 | LK-2 | – | – | – | – | – | 0.977 | 0.692 | 0.817 | 0.329 | 0.249 | 0.455 | 0.251 | 0.0955 | 0.105 | 0.0964 | 0.242 | 0.23 | 0.204 | 0.109 | 0.128
15 | NCI-H358 | – | – | – | – | – | 0.436 | 0.398 | 0.203 | 0.212 | 0.156 | 0.201 | 0.245 | 0.16 | 0.23 | 0.126 | 0.188 | 0.171 | 0.151 | 0.102 | 0.105
16 | NCI-H441 | 0.642 | 0.327 | 0.116 | 0.14 | 0.139 | – | – | – | – | – | 0.603 | 0.134 | 0.11 | 0.165 | 0.128 | 0.208 | 0.212 | 0.17 | 0.167 | 0.127
17 | NCI-H520 | 0.604 | 0.698 | 0.295 | 0.154 | 0.11 | 0.901 | 1.11 | 0.474 | 0.186 | 0.121 | – | – | – | – | – | 0.525 | 0.48 | 0.289 | 0.189 | 0.198
